Some test systems named below: SR leukemia; RXF 393 renal; A498 renal; OVCAR-4 ovarian; SK-OV-3 ovarian; NCI-H226 lung; HCT-116 colon; SNB-75 CNS; SF-268 CNS.
Holding throughout (experiment): growth of human tumour cells (NCI), 48 h

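Cultured in 96-well plates, cells were exposed to test compound for 48 hours across five concentrations. GI50 is the concentration that inhibits growth by half. TGI: concentration producing complete growth inhibition.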

Regarding `COC(=O)C1C(O)C(C(=O)OC)C(C)N(C)C1C` (stereo unspecified), the TGI with SR leukemia, in the test on RXF 393 renal, with A498 renal, in the test on OVCAR-4 ovarian, with SK-OV-3 ovarian and with NCI-H226 lung was > 100 µM throughout. Besides, in the test with HCT-116 colon, the TGI is > 100 µM.
Regarding `COC(=O)C(=O)C(C(C)=O)C(=O)NCc1ccc(OC)c(OC)c1` (stereo unspecified), the TGI with SR leukemia, in the test with RXF 393 renal, in the test on A498 renal, in the test on OVCAR-4 ovarian, in the test with SNB-75 CNS and in the test with SK-OV-3 ovarian was > 100 µM in each case. The TGI with NCI-H226 lung, in the test with HCT-116 colon and with SF-268 CNS was > 100 µM each time.
Regarding `Cc1ccccc1C1=[N+]([O-])c2ccc(Cl)cc2C1=O`, the TGI with SR leukemia is 64.2 µM; in the test with RXF 393 renal, 34.9 µM; in the test with A498 renal it was 71.4 µM; with SNB-75 CNS, 40.3 µM; in the test on SK-OV-3 ovarian, 52.6 µM; in the test on NCI-H226 lung it was 30.6 µM. Also, the TGI in the test with HCT-116 colon turned out to be 19.5 µM; in the test with SF-268 CNS, 33.1 µM.
On to `COc1cc2c(/C=N\N=C(N)N)c[nH]c2cc1C`, for which the GI50 in the test on SR leukemia was 16.5 µM; in the test with RXF 393 renal, 62.1 µM; in the test on A498 renal, 27.3 µM; in the test on SK-OV-3 ovarian, 25.8 µM; in the test with NCI-H226 lung, 17.1 µM; in the test with HCT-116 colon it was 14.6 µM. Besides, the GI50 in the test with SF-268 CNS is 12.5 µM. Besides, the TGI is 30.1 µM with SR leukemia; > 100 µM in the test with RXF 393 renal; 73.9 µM in the test with A498 renal; 62.2 µM in the test on SK-OV-3 ovarian; 71.8 µM with NCI-H226 lung; 27.7 µM in the test with HCT-116 colon. The same compound showed a TGI with SF-268 CNS of 28.7 µM.
In the case of `CCC1CN2CCc3cc(OC)c(OC)cc3C2CC1CC1c2cc(OC)c(OC)cc2CCN1C(=O)C1CCCN1` (stereo unspecified), the TGI is 85.1 µM with SR leukemia; 73.8 µM with RXF 393 renal; 56.6 µM in the test with A498 renal; 87.9 µM with OVCAR-4 ovarian; > 100 µM with SNB-75 CNS; 98.5 µM in the test with SK-OV-3 ovarian. Further, the values for the TGI in the test with NCI-H226 lung, with HCT-116 colon and in the test on SF-268 CNS were 96.7 µM, 55 µM and 65.2 µM, respectively.
As for `COC(=O)/C(=N/O)C(C(=O)C=C(C)C)C(=O)C(=O)Nc1nc2ccc([N+](=O)[O-])cc2s1` (stereo unspecified), the TGI in the test on SR leukemia is > 100 µM; in the test with A498 renal it was 31 µM; in the test on OVCAR-4 ovarian, > 100 µM; with SK-OV-3 ovarian, 63 µM; in the test with NCI-H226 lung it was 72.1 µM; in the test on HCT-116 colon it was > 100 µM. In the test on SF-268 CNS, this compound had a TGI of 99.2 µM.
Turning to `Cn1c(=O)nc2n(-c3cc(C(F)(F)F)cc(C(F)(F)F)c3)c3ccccc3nc-2c1=O`, the TGI in the test with SR leukemia is > 100 µM; in the test on RXF 393 renal, > 100 µM; in the test with A498 renal, > 100 µM; in the test on OVCAR-4 ovarian it was > 100 µM; in the test on SNB-75 CNS, 47.1 µM; with SK-OV-3 ovarian it was > 100 µM. Further, the TGI in the test with NCI-H226 lung, in the test with HCT-116 colon and with SF-268 CNS was > 100 µM each time.
Consider `CC(=O)N1CCN(c2ccc(OCC3COC(Cn4ccnc4)(c4ccc(Cl)cc4Cl)O3)cc2)CC1` (stereo unspecified), for which the TGI in the test with SR leukemia is 66.5 µM; in the test with RXF 393 renal, 57.8 µM; with A498 renal it was > 100 µM; in the test on OVCAR-4 ovarian it was > 100 µM; with SK-OV-3 ovarian it was > 100 µM; in the test with NCI-H226 lung, 73.6 µM. This compound had a TGI with HCT-116 colon of 76.6 µM.
`Cc1ccc(C)c(N2C/C(=N\NC(=O)CC#N)C(c3nc4ccccc4s3)C(=O)C2=O)c1` (stereo unspecified): the TGI in the test on SR leukemia, in the test with RXF 393 renal, in the test on A498 renal, with OVCAR-4 ovarian, in the test with SNB-75 CNS and in the test with SK-OV-3 ovarian was > 100 µM each time. Besides, the TGI in the test on NCI-H226 lung, with HCT-116 colon and with SF-268 CNS was > 100 µM throughout.
For `COc1c(C)n(CCO)ccc1=O`, the TGI in the test with SR leukemia, in the test on RXF 393 renal, in the test with A498 renal, in the test with OVCAR-4 ovarian, in the test with SNB-75 CNS and in the test on SK-OV-3 ovarian was > 100 µM in each case. Besides, the TGI in the test with NCI-H226 lung, in the test with HCT-116 colon and in the test on SF-268 CNS was > 100 µM throughout.
As to `COc1cccc(/C=N/[N-]C(=O)c2ccncc2)c1[O-].COc1cccc(/C=N/[N-]C(=O)c2ccncc2)c1[O-].[O]=[U](=[O])([OH2+])[OH2+]`, the GI50 in the test with SR leukemia was 3.37 µM; with RXF 393 renal, 6.11 µM; in the test with A498 renal it was 21.5 µM; in the test with OVCAR-4 ovarian, > 34.2 µM; with SNB-75 CNS it was 12.9 µM; in the test with SK-OV-3 ovarian it was 12.2 µM. Also, the GI50 is 5.01 µM in the test with NCI-H226 lung, 4.8 µM in the test with HCT-116 colon and 4.83 µM with SF-268 CNS. Moreover, the TGI in the test on SR leukemia was > 100 µM; with RXF 393 renal it was 25.3 µM; with A498 renal, 47.7 µM; in the test with OVCAR-4 ovarian, > 100 µM; in the test with SNB-75 CNS, 62.6 µM; in the test on SK-OV-3 ovarian it was 73.2 µM. Moreover, the TGI in the test on NCI-H226 lung is 28 µM; with HCT-116 colon it was > 100 µM; with SF-268 CNS, 49.4 µM.
